Source: the supplement of paper PMC10307832

Assays:
Assay in all cases: relative viability (nuclei count vs DMSO), 5 days (fraction); higher = more cells survive
[1] = compound: CC1=CC=C(C=C1)C(=O)CN2C3=C(CCCC3)SC2=N [Pifithrin_alpha] + O=C(c1cc(Cc2n[nH]c(=O)c3ccccc23)ccc1F)N1CCN(C(=O)C2CC2)CC1 [Olaparib] (partner 8 µM)
Outline: (§1)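 Relative viability was taken as the ratio of nuclei in treated wells to nuclei in vehicle wells. Lung cancer cell lines in 1536-well plates received compounds by pin tool one day after seeding, either one drug alone or a fixed anchor-drug dose plus five library-drug doses (not always all listed) in √10 steps. Nuclei were counted on 4× images after 5 days of treatment, and values are medians of duplicate plates.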

Axitinib + Pictilisib = compound: CNC(=O)c1ccccc1Sc1ccc2c(/C=C/c3ccccn3)n[nH]c2c1 [Axitinib] + CS(=O)(=O)N1CCN(Cc2cc3nc(-c4cccc5[nH]ncc45)nc(N4CCOCC4)c3s2)CC1 [Pictilisib] (partner 1 µM)
Outline: as §1

Axitinib + Pemetrexed = compound: CNC(=O)c1ccccc1Sc1ccc2c(/C=C/c3ccccn3)n[nH]c2c1 [Axitinib] + Nc1nc2[nH]cc(CCc3ccc(C(=O)N[C@@H](CCC(=O)O)C(=O)O)cc3)c2c(=O)[nH]1 [Pemetrexed] (partner 0.2 µM)
Outline: as §1

Bemcentinib + Trametinib = compound: Nc1nc(Nc2ccc3c(c2)CC[C@@H](N2CCCC2)CC3)nn1-c1cc2c(nn1)-c1ccccc1CCC2 [Bemcentinib] + CC(=O)Nc1cccc(-n2c(=O)n(C3CC3)c(=O)c3c(Nc4ccc(I)cc4F)n(C)c(=O)c(C)c32)c1 [Trametinib] (partner 0.02 µM)
Outline: as §1

| Cell Line | relative viability ([1]; first compound 1 µM) | relative viability ([1]; first compound 3.162 µM) | relative viability ([1]; first compound 10 µM) | relative viability ([1]; first compound 31.62 µM) | relative viability ([1]; first compound 100 µM) | relative viability (Axitinib + Pictilisib; first compound 0.005 µM) | relative viability (Axitinib + Pictilisib; first compound 0.01581 µM) | relative viability (Axitinib + Pictilisib; first compound 0.05 µM) | relative viability (Axitinib + Pictilisib; first compound 0.1581 µM) | relative viability (Axitinib + Pictilisib; first compound 0.5 µM) | relative viability (Axitinib + Pemetrexed; first compound 0.005 µM) | relative viability (Axitinib + Pemetrexed; first compound 0.01581 µM) | relative viability (Axitinib + Pemetrexed; first compound 0.05 µM) | relative viability (Axitinib + Pemetrexed; first compound 0.1581 µM) | relative viability (Axitinib + Pemetrexed; first compound 0.5 µM) | relative viability (Bemcentinib + Trametinib; first compound 0.04 µM) | relative viability (Bemcentinib + Trametinib; first compound 0.1265 µM) | relative viability (Bemcentinib + Trametinib; first compound 0.4 µM) | relative viability (Bemcentinib + Trametinib; first compound 1.265 µM) | relative viability (Bemcentinib + Trametinib; first compound 4 µM) |
| --- | --- | --- | --- | --- | --- | --- | --- | --- | --- | --- | --- | --- | --- | --- | --- | --- | --- | --- | --- | --- |
| NCI-H520 | 0.319 | 0.286 | 0.317 | 0.301 | 0.292 | 0.326 | 0.247 | 0.288 | 0.272 | 0.327 | 0.68 | 0.698 | 0.74 | 0.681 | 0.716 | 0.723 | 0.859 | 0.706 | 0.713 | 0.733 |
| BEN | 1.01 | 1.13 | 1.01 | 0.562 | 1.01 | 0.547 | 0.536 | 0.533 | 0.516 | 0.515 | 0.73 | 0.858 | 0.801 | 0.859 | 0.751 | 1.01 | 1.18 | 1.21 | 1.04 | 1.03 |
| LK-2 | 0.554 | 0.833 | 0.933 | – | 0.776 | 0.556 | 0.434 | 0.512 | 0.506 | 0.486 | 0.26 | 0.216 | 0.234 | 0.258 | 0.242 | 0.798 | 0.908 | 0.629 | 0.795 | 0.885 |
| NCI-H2087 | 0.617 | 0.614 | 0.524 | 0.236 | 0.469 | 0.982 | 0.848 | 0.992 | 0.856 | 0.769 | 0.766 | 0.593 | 0.597 | 0.7 | 0.728 | 0.192 | 0.193 | 0.201 | 0.211 | 0.206 |
| NCI-H661 | 0.777 | 0.882 | 0.656 | 0.601 | 0.669 | 0.387 | 0.422 | 0.339 | 0.46 | 0.375 | 0.885 | 0.916 | 0.902 | 0.942 | 0.956 | 0.62 | 0.678 | 0.604 | 0.553 | 0.595 |
| NCI-H2170 | 0.657 | 0.593 | 0.541 | 0.309 | 0.551 | 0.316 | 0.268 | 0.327 | 0.305 | 0.259 | 0.281 | 0.252 | 0.261 | 0.27 | 0.27 | 0.94 | 0.967 | 0.92 | 0.968 | 0.936 |
| LCLC-103H | 0.772 | 0.817 | 0.644 | 0.52 | 0.686 | 0.644 | 0.512 | 0.664 | 0.569 | 0.587 | 0.507 | 0.443 | 0.496 | 0.477 | 0.526 | 0.706 | 0.736 | 0.679 | 0.712 | 0.707 |
| NCI-H441 | 0.608 | 0.673 | 0.468 | – | 0.542 | 0.456 | 0.563 | 0.413 | 0.571 | 0.542 | 0.271 | 0.305 | 0.232 | 0.248 | 0.265 | 0.294 | 0.435 | 0.499 | 0.347 | 0.409 |
| LOU-NH91 | 0.821 | 0.908 | 0.864 | 0.523 | 0.795 | 0.528 | 0.529 | 0.557 | 0.544 | 0.52 | 0.392 | 0.402 | 0.406 | 0.421 | 0.395 | 0.807 | 0.792 | 0.849 | 0.822 | 0.789 |
| NCI-H647 | 0.531 | 0.44 | 0.531 | 0.217 | 0.492 | 0.439 | 0.416 | 0.425 | 0.478 | 0.399 | 0.21 | 0.149 | 0.2 | 0.184 | 0.209 | 0.493 | 0.545 | 0.538 | 0.392 | 0.634 |
| NCI-H1915 | 0.245 | 0.267 | 0.249 | – | 0.276 | 0.966 | 0.994 | 0.999 | 0.888 | 0.88 | 0.497 | 0.494 | 0.501 | 0.522 | 0.536 | 0.291 | 0.29 | 0.283 | 0.293 | 0.305 |
| NCI-H1944 | 0.378 | 0.337 | 0.344 | 0.25 | 0.28 | 0.356 | 0.336 | 0.357 | 0.351 | 0.357 | 0.6 | 0.583 | 0.707 | 0.657 | 0.652 | 0.399 | 0.43 | 0.463 | 0.431 | 0.468 |
| NCI-H1792 | 0.469 | 0.348 | 0.272 | – | 0.255 | 0.311 | 0.251 | 0.213 | 0.275 | 0.271 | 1.05 | 0.784 | 0.786 | 0.816 | 0.792 | 0.461 | 0.422 | 0.549 | 0.569 | 0.43 |
| HARA | 0.659 | 0.931 | 1 | 0.305 | 0.808 | 0.324 | 0.401 | 0.545 | 0.364 | 0.281 | 0.231 | 0.265 | 0.309 | 0.26 | 0.258 | 0.769 | 0.83 | 0.69 | 0.67 | 0.96 |
| NCI-H2347 | 0.603 | 0.573 | 0.587 | 0.541 | 0.547 | 0.605 | 0.584 | 0.876 | 0.855 | 0.783 | 0.443 | 0.39 | 0.441 | 0.458 | 0.446 | 0.254 | 0.312 | 0.232 | 0.307 | 0.302 |
